The source of these data is US6156757A, “1,2,3,4-tetrahydro-benzofuro[3,2-C]pyridine derivatives” (Janssen Pharmaceutica N.V., priority 1997, dated 2000).

The target of assay [1] is T1, cloned human α2B receptors (Homo sapiens, UniProt P18089).
T1 construct: expressed in transfected cells; host or cells: CHO cells
T1 sequence (P18089 1-450): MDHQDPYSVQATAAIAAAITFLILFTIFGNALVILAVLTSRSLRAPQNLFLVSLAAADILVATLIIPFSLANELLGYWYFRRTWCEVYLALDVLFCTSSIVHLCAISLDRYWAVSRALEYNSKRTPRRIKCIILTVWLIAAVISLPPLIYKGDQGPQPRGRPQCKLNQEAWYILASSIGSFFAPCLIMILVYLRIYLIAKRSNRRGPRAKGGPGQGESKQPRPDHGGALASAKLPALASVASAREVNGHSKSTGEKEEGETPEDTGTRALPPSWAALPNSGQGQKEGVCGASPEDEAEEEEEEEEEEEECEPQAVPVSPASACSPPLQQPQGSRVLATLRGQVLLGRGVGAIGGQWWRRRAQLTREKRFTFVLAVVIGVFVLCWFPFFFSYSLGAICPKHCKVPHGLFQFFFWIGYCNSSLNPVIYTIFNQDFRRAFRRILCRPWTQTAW
Kind of assay: In vitro binding affinity for α2B receptors (3H-rauwolscine competition binding). The note with it: at a test concentration of 10^-8 M or less; CHO cell expressing cloned human α2B receptors. The procedure: (§1) The interaction of the compounds of formula (I) with α2 receptors was assessed in in vitro radioligand binding experiments.
(§2) In general, a low concentration of a radioligand with a high binding affinity for a particular receptor is incubated with a sample of a tissue preparation enriched in a particular receptor or with a preparation of cells expressing cloned human receptors in a buffered medium. During the incubation, the radioligand binds to the receptor. When equilibrium of binding is reached, the receptor bound radioactivity is separated from the non-bound radioactivity, and the receptor bound activity is counted. The interaction of the test compounds with the receptor is assessed in competition binding experiments. Various concentrations of the test compound are added to the incubation mixture containing the receptor preparation and the radioligand. Binding of the radioligand will be inhibited by the test compound in proportion to its binding affinity and its concentration.
The radioligand used for α2B receptor binding is ^3 H-rauwolscine and the receptor preparation used is the CHO cell expressing cloned human α2B receptors.

Another assay has as its system α2 -adrenoceptor. Kind of assay: Xylazine-induced loss of righting reflex in rats. Type of assay: in vivo. The note with it: one hour before xylazine 15 mg/kg i.v., male rats, lowest tested dose at which at least 66% of animals showed no loss of righting reflex. The procedure: This test is based upon the fact that centrally acting α2 -adrenoceptor antagonists reverse the loss of righting reflex induced by an intravenous injection of the α2 agonist xylazine. One hour before injection of xylazine (15 mg/kg, i.v.), male rats (200-250 g) were pretreated with a test compound (er os (p.o.) or subcutaneously (s.c.)) or solvent.

In assay [2] the target is T2, cloned human α2A receptors (Homo sapiens, UniProt P08913).
T2 sequence (P08913 1-465): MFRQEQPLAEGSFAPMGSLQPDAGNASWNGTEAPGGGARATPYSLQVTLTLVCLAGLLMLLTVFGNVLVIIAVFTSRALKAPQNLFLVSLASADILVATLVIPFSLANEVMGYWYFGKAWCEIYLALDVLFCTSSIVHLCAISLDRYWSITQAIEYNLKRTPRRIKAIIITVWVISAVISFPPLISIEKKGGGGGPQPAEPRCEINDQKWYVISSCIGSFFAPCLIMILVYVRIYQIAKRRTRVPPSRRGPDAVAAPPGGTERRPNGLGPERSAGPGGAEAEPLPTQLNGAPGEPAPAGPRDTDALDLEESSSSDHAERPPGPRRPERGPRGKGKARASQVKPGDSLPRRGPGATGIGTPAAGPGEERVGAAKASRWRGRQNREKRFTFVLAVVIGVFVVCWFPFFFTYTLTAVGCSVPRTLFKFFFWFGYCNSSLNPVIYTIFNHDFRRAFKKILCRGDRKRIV
Kind of assay: In vitro binding affinity for α2A receptors (3H-rauwolscine competition binding). To be noted: at a test concentration of 10^-8 M or less; CHO cell expressing cloned human α2A receptors. The procedure:
as §1, §2
The radioligand used for α2A receptor binding is ^3 H-rauwolscine and the receptor preparation used is the Chinese Hamster Ovary (CHO) cell expressing cloned human α2A receptors.

For assay [3], the target named is T3, cloned human α2C receptors (Homo sapiens, UniProt P18825).
T3 construct: expressed in transfected cells; host or cells: CHO cells
T3 sequence (P18825 1-462): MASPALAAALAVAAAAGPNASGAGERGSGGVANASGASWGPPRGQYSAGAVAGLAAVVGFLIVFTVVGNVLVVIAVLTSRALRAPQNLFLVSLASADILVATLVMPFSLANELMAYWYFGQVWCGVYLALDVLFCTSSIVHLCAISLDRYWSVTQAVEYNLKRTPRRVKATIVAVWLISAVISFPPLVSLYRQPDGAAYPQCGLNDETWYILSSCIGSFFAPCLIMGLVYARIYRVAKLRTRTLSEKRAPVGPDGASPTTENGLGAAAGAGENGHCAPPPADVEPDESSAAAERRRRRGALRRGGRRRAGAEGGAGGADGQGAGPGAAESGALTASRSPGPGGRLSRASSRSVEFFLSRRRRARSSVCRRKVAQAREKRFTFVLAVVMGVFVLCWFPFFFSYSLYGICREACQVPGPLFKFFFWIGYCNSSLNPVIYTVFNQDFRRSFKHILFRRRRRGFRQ
Kind of assay: In vitro binding affinity for α2C receptors (3H-rauwolscine competition binding). The note with it: at a test concentration of 10^-8 M or less; CHO cell expressing cloned human α2C receptors.

Take `O=c1c(CCN2CCc3oc4ccccc4c3C2)c(-c2ccccc2)nc2n1CCCC2` [Compound 10]: the inhibition at up to 0.01 µM in assay [1] and in assay [3] was above 50% throughout. The “LAD in mg/kg (lowest active dose for xylazine antagonism)” value (from here on “LAD in mg/kg”) with α2 -adrenoceptor (s.c.) is 10.00 mg/kg. In assay [2], the inhibition was above 50%.
`Cc1nc2n(C)c(C)cn2c(=O)c1CCN1CCc2oc3ccccc3c2C1` [Compound 30] had an inhibition at up to 0.01 µM in assay [1] above 50%. For the same compound, the “LAD in mg/kg” value with α2 -adrenoceptor (s.c.) was determined as 2.50 mg/kg.
As for `Cc1nc2ccc(Br)cn2c(=O)c1CCN1CCc2oc3ccccc3c2C1` [Compound 31], in assay [1], the inhibition at up to 0.01 µM was above 50%. Also, in the assay on α2 -adrenoceptor (s.c.), the “LAD in mg/kg” value stood at 0.16 mg/kg.
In the case of `Cc1nc2c(C)cccn2c(=O)c1CCN1CCc2oc3ccccc3c2C1` [Compound 33], the inhibition at up to 0.01 µM in assay [1] and in assay [3] was above 50% in each case. In addition, the “LAD in mg/kg” value with α2 -adrenoceptor (s.c.) is given as 10.00 mg/kg. Further, the inhibition in assay [2] was above 50%.
Regarding `O=c1[nH]c2ccccc2n1CCN1CCc2oc3ccccc3c2C1` [Compound 52], the inhibition at up to 0.01 µM in assay [1] and in assay [3] was above 50% each time. In addition, the “LAD in mg/kg” value in the assay with α2 -adrenoceptor (s.c.) was 10.00 mg/kg. Besides, the inhibition in assay [2] was above 50%.
On to `O=c1[nH]c2ccccc2n1CCCN1CCc2oc3ccccc3c2C1` [Compound 53], for which the inhibition at up to 0.01 µM in assay [1] and in assay [3] was above 50% in each case. Besides, the inhibition in assay [2] was above 50%.
Take `CSc1nc(C)c(CCN2CCc3oc4ccccc4c3C2)c(=O)n1C` [Compound 56]: the inhibition at up to 0.01 µM in assay [1] was above 50%.
Turning to `Cc1nc2sc3ccccc3n2c(=O)c1CCN1CCc2oc3ccccc3c2C1` [Compound 62], the inhibition at up to 0.01 µM in assay [1] and in assay [3] was above 50% throughout. For the same compound, in the assay on α2 -adrenoceptor (p.o.), the “LAD in mg/kg” value is listed as 10.00 mg/kg. In assay [2], this compound gave an inhibition above 50%.
In the case of `O=c1[nH]c2ccccc2c(=O)n1CCCCN1CCc2oc3ccccc3c2C1` [Compound 63], the inhibition at up to 0.01 µM in assay [1] and in assay [3] was above 50% throughout. For the same compound, the inhibition in assay [2] was above 50%.
Consider `COc1cccn2c(=O)c(CCN3CCc4oc5ccccc5c4C3)c(C)nc12` [Compound 65, 3-[2-[3,4-dihydrobenzofuro[3,2-c]-pyridin-2(1H)-yl]ethyl]-9-methoxy-2-methyl-4H-pyrido[1,2-a]pyrimidin-4-one], for which the “LAD in mg/kg” value in the assay on α2 -adrenoceptor (s.c.) was determined as 0.63 mg/kg. For the same compound, in assay [2], the inhibition was above 50%. In assay [3], this compound yielded an inhibition at up to 0.01 µM above 50%.
`Cc1nc2ccccn2c(=O)c1CCN1CCc2oc3ccccc3c2C1` [Compound 66]: the inhibition at up to 0.01 µM in assay [1] and in assay [3] was above 50% in each case. Further, the “LAD in mg/kg” value in the assay with α2 -adrenoceptor (s.c.) was 0.63 mg/kg. In assay [2], this compound came in with an inhibition above 50%.

A word on the inhibition: it is how much of the control response was suppressed.
